Test results from ChEMBL document CHEMBL4699645 (2020).
Where a SMILES comes first, the peptide text is derived from it. Bridges are numbered along the chain shown (N, C = ends).

How the values were obtained:
[1] = molecular target: Neuronal acetylcholine receptor; alpha3/beta4 (Rattus norvegicus) (UniProt P04757+P12392); assay: Antagonist activity at rat alpha3beta4 nAChR expressed in Xenopus laevis oocytes assessed as inhibition of Ach-induced response at -70 mV holding potential incubated for 5 mins by voltage-clamp assay relative to LvIA IC50; type: cell-based; conditions: Oocyte
[2] = system: Hi-5; assay: Displacement of [125I]-alpha-bungarotoxin from Aplysia californica C-terminal His6-tagged N-terminal gp67 signal peptide-tagged acetylcholine receptor binding protein expressed in Hi5 insect cells preincubated for 3 hrs followed by [125I]-alpha-bungarotoxin measured after 5 mins by radioligand binding assay relative to LvIA IC50; conditions: time 185.0 min
[3] = molecular target: Neuronal acetylcholine receptor; alpha3/beta4 (Rattus norvegicus, UniProt P04757+P12392); assay: Antagonist activity at rat alpha3beta4 nAChR expressed in Xenopus laevis oocytes assessed as inhibition of Ach-induced response at -70 mV holding potential incubated for 5 mins by voltage-clamp assay; type: cell-based, Oocyte
Neuronal acetylcholine receptor; alpha3/beta4, sequence (P04757 whole entry): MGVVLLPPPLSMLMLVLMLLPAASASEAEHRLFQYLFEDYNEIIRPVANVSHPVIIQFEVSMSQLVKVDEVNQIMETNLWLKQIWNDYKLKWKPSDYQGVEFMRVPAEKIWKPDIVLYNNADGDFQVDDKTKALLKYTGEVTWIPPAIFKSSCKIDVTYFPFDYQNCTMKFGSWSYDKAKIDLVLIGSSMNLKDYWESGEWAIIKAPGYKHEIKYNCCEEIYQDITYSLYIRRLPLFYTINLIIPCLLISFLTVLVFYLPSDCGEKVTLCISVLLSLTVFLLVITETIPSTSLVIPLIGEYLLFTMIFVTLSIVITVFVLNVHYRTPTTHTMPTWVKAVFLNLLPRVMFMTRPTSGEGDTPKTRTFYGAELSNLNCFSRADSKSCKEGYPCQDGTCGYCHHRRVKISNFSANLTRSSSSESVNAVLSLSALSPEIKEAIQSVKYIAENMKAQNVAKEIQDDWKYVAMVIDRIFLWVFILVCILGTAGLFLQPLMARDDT
Neuronal acetylcholine receptor; alpha3/beta4, sequence (P12392 whole entry): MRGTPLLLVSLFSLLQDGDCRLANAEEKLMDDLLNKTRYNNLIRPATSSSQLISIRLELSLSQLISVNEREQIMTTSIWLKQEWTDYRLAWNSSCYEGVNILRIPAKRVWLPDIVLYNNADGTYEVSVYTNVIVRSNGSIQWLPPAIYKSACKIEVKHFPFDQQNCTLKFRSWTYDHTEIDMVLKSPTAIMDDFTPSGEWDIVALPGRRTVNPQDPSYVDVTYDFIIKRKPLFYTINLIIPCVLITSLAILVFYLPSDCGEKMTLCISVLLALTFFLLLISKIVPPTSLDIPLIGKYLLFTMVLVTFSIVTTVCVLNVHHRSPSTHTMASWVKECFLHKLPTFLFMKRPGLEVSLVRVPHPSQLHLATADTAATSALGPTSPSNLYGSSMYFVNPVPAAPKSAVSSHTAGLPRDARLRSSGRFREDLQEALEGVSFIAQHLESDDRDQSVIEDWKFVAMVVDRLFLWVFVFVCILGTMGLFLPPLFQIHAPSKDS

[4] = molecular target: Neuronal acetylcholine receptor; alpha3/beta2 (Rattus norvegicus) (UniProt P04757+P12390); assay: Antagonist activity at rat alpha3beta2 nAChR expressed in Xenopus laevis oocytes assessed as inhibition of Ach-induced response at -70 mV holding potential incubated for 5 mins by voltage-clamp assay relative to LvIA IC50; type: cell-based; conditions: Oocyte
[5] = molecular target: Neuronal acetylcholine receptor; alpha3/beta2 (Rattus norvegicus, UniProt P04757+P12390); assay: Antagonist activity at rat alpha3beta2 nAChR expressed in Xenopus laevis oocytes assessed as inhibition of Ach-induced response at -70 mV holding potential incubated for 5 mins by voltage-clamp assay; type: cell-based, Oocyte
Neuronal acetylcholine receptor; alpha3/beta2, sequence (P04757 whole entry): as the sequence (P04757 whole entry) above
Neuronal acetylcholine receptor; alpha3/beta2, sequence (P12390 whole entry): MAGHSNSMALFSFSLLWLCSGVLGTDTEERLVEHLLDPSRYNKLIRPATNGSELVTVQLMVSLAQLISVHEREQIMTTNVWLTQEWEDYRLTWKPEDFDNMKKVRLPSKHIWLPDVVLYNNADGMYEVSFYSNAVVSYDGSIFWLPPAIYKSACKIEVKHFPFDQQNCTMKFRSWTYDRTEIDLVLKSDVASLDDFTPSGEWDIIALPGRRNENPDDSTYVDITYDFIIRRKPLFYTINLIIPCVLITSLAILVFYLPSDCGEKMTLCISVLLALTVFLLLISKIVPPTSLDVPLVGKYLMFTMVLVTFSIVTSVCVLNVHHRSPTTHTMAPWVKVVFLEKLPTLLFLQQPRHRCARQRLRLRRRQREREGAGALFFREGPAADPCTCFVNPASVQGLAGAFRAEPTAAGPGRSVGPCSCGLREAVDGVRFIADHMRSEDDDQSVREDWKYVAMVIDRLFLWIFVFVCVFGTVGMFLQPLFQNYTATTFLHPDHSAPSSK

[6] = species: Rattus norvegicus; assay: Selectivity index, ratio of IC50 for rat alpha3beta4 nAChR expressed in Xenopus laevis oocytes to IC50 for rat alpha3beta2 nAChR expressed in Xenopus laevis oocytes; type: cell-based
[7] = Displacement of [125I]-alpha-bungarotoxin from Aplysia californica C-terminal His6-tagged N-terminal gp67 signal peptide-tagged acetylcholine receptor binding protein expressed in Hi5 insect cells preincubated for 3 hrs followed by [125I]-alpha-bungarotoxin measured after 5 mins by radioligand binding assay

Row | Structure (SMILES) | Ratio IC50 [1] | Ratio IC50 [2] | IC50 [3] [nM] | Ratio IC50 [4] | IC50 [5] [nM] | Ratio IC50 [6] | IC50 [7] [nM]
1 | CC[C@H](C)[C@@H]1NC(=O)[C@H](CCC(=O)O)NC(=O)[C@@H]2CCCN2C(=O)[C@H](Cc2cnc[nH]2)NC(=O)[C@H](CC(=O)O)NC(=O)[C@H](C(C)C)NC(=O)[C@H](CC(N)=O)NC(=O)[C@@H]2CSSC[C@H](NC(=O)[C@H](C)N)C(=O)N[C@@H](CSSC[C@@H](C(N)=O)NC1=O)C(=O)N[C@@H](CO)C(=O)N[C@@H](Cc1cnc[nH]1)C(=O)N1CCC[C@H]1C(=O)N[C@@H](C)C(=O)N2 (H-ACCSHPACNVDHPEIC-NH2; disulfide 2-8, 3-16) | 3.4 | 0.71 | 975 | 24 | 375 | 2.6 | 11800
2 | CC[C@H](C)[C@@H]1NC(=O)[C@H](CCC(=O)O)NC(=O)[C@@H]2CCCN2C(=O)[C@H](Cc2cnc[nH]2)NC(=O)[C@H](CC(=O)O)NC(=O)[C@H](C(C)C)NC(=O)[C@H](CC(N)=O)NC(=O)[C@@H]2CSSC[C@H](NC(=O)CN)C(=O)N[C@@H](CSSC[C@@H](C(N)=O)NC1=O)C(=O)N[C@@H](C)C(=O)N[C@@H](Cc1cnc[nH]1)C(=O)N1CCC[C@H]1C(=O)N[C@@H](C)C(=O)N2 (H-GCCAHPACNVDHPEIC-NH2; disulfide 2-8, 3-16) | 0.7 | -0.47 | 193 | 3.5 | 54 | 3.6 | 780
3 | CC[C@H](C)[C@@H]1NC(=O)[C@H](CCC(=O)O)NC(=O)[C@@H]2CCCN2C(=O)[C@H](Cc2cnc[nH]2)NC(=O)[C@H](CC(=O)O)NC(=O)[C@H](C(C)C)NC(=O)[C@H](CC(N)=O)NC(=O)[C@@H]2CSSC[C@H](NC(=O)CN)C(=O)N[C@@H](CSSC[C@@H](C(N)=O)NC1=O)C(=O)N[C@@H](CO)C(=O)N[C@@H](C)C(=O)N1CCC[C@H]1C(=O)N[C@@H](C)C(=O)N2 (H-GCCSAPACNVDHPEIC-NH2; disulfide 2-8, 3-16) | – | 2.13 | > 10000 | – | > 10000 | – | 310000
4 | CC[C@H](C)[C@@H]1NC(=O)[C@H](CCC(=O)O)NC(=O)[C@@H]2CCCN2C(=O)[C@H](Cc2cnc[nH]2)NC(=O)[C@H](CC(=O)O)NC(=O)[C@H](C(C)C)NC(=O)[C@H](CC(N)=O)NC(=O)[C@@H]2CSSC[C@H](NC(=O)CN)C(=O)N[C@@H](CSSC[C@@H](C(N)=O)NC1=O)C(=O)N[C@@H](CO)C(=O)N[C@@H](Cc1cnc[nH]1)C(=O)N[C@@H](C)C(=O)N[C@@H](C)C(=O)N2 (H-GCCSHAACNVDHPEIC-NH2; disulfide 2-8, 3-16) | – | 1.17 | > 10000 | – | > 10000 | – | 34000
5 | CC[C@H](C)[C@@H]1NC(=O)[C@H](CCC(=O)O)NC(=O)[C@@H]2CCCN2C(=O)[C@H](Cc2cnc[nH]2)NC(=O)[C@H](CC(=O)O)NC(=O)[C@H](C(C)C)NC(=O)[C@H](CC(=O)O)NC(=O)[C@@H]2CSSC[C@H](NC(=O)CN)C(=O)N[C@@H](CSSC[C@@H](C(N)=O)NC1=O)C(=O)N[C@@H](CO)C(=O)N[C@@H](Cc1cnc[nH]1)C(=O)N1CCC[C@H]1C(=O)N[C@@H](C)C(=O)N2 (H-GCCSHPACDVDHPEIC-NH2; disulfide 2-8, 3-16) | 7.1 | – | > 10000 | 0.24 | > 10000 | – | –
6 | CC[C@H](C)[C@@H]1NC(=O)[C@H](CCC(=O)O)NC(=O)[C@@H]2CCCN2C(=O)[C@H](Cc2cnc[nH]2)NC(=O)[C@H](CC(=O)O)NC(=O)[C@H](C(C)C)NC(=O)CNC(=O)[C@@H]2CSSC[C@H](NC(=O)CN)C(=O)N[C@@H](CSSC[C@@H](C(N)=O)NC1=O)C(=O)N[C@@H](CO)C(=O)N[C@@H](Cc1cnc[nH]1)C(=O)N1CCC[C@H]1C(=O)N[C@@H](C)C(=O)N2 (H-GCCSHPACGVDHPEIC-NH2; disulfide 2-8, 3-16) | 19.2 | – | > 10000 | 0.48 | > 10000 | – | –
7 | CC[C@H](C)[C@@H]1NC(=O)[C@H](CCC(=O)O)NC(=O)[C@@H]2CCCN2C(=O)[C@H](Cc2cnc[nH]2)NC(=O)[C@H](CC(=O)O)NC(=O)[C@H](C(C)C)NC(=O)[C@H]([C@@H](C)CC)NC(=O)[C@@H]2CSSC[C@H](NC(=O)CN)C(=O)N[C@@H](CSSC[C@@H](C(N)=O)NC1=O)C(=O)N[C@@H](CO)C(=O)N[C@@H](Cc1cnc[nH]1)C(=O)N1CCC[C@H]1C(=O)N[C@@H](C)C(=O)N2 (H-GCCSHPACIVDHPEIC-NH2; disulfide 2-8, 3-16) | 1.1 | – | 5560 | 0.21 | 7.5 | 742 | –
8 | CC[C@H](C)[C@@H]1NC(=O)[C@H](CCC(=O)O)NC(=O)[C@@H]2CCCN2C(=O)[C@H](Cc2cnc[nH]2)NC(=O)[C@H](CC(=O)O)NC(=O)[C@H](C(C)C)NC(=O)[C@H](CCCCN)NC(=O)[C@@H]2CSSC[C@H](NC(=O)CN)C(=O)N[C@@H](CSSC[C@@H](C(N)=O)NC1=O)C(=O)N[C@@H](CO)C(=O)N[C@@H](Cc1cnc[nH]1)C(=O)N1CCC[C@H]1C(=O)N[C@@H](C)C(=O)N2 (H-GCCSHPACKVDHPEIC-NH2; disulfide 2-8, 3-16) | – | – | 2070 | – | 3.8 | 544 | –
9 | CC[C@H](C)[C@@H]1NC(=O)[C@H](CCC(=O)O)NC(=O)[C@@H]2CCCN2C(=O)[C@H](Cc2cnc[nH]2)NC(=O)[C@H](CC(=O)O)NC(=O)[C@H](C(C)C)NC(=O)[C@H](CC(C)C)NC(=O)[C@@H]2CSSC[C@H](NC(=O)CN)C(=O)N[C@@H](CSSC[C@@H](C(N)=O)NC1=O)C(=O)N[C@@H](CO)C(=O)N[C@@H](Cc1cnc[nH]1)C(=O)N1CCC[C@H]1C(=O)N[C@@H](C)C(=O)N2 (H-GCCSHPACLVDHPEIC-NH2; disulfide 2-8, 3-16) | – | – | 325 | – | 3.2 | 102 | –
10 | CC[C@H](C)[C@@H]1NC(=O)[C@H](CCC(=O)O)NC(=O)[C@@H]2CCCN2C(=O)[C@H](Cc2cnc[nH]2)NC(=O)[C@H](CC(=O)O)NC(=O)[C@H](C)NC(=O)[C@H](CC(N)=O)NC(=O)[C@@H]2CSSC[C@H](NC(=O)CN)C(=O)N[C@@H](CSSC[C@@H](C(N)=O)NC1=O)C(=O)N[C@@H](CO)C(=O)N[C@@H](Cc1cnc[nH]1)C(=O)N1CCC[C@H]1C(=O)N[C@@H](C)C(=O)N2 (H-GCCSHPACNADHPEIC-NH2; disulfide 2-8, 3-16) | 1.1 | 0.036 | 309 | 4.5 | 71 | 4.4 | 2500
11 | CC[C@H](C)[C@@H]1NC(=O)[C@H](CCC(=O)O)NC(=O)[C@@H]2CCCN2C(=O)[C@H](Cc2cnc[nH]2)NC(=O)[C@H](C)NC(=O)[C@H](C(C)C)NC(=O)[C@H](CC(N)=O)NC(=O)[C@@H]2CSSC[C@H](NC(=O)CN)C(=O)N[C@@H](CSSC[C@@H](C(N)=O)NC1=O)C(=O)N[C@@H](CO)C(=O)N[C@@H](Cc1cnc[nH]1)C(=O)N1CCC[C@H]1C(=O)N[C@@H](C)C(=O)N2 (H-GCCSHPACNVAHPEIC-NH2; disulfide 2-8, 3-16) | 0.2 | -1.39 | 67.9 | 0.8 | 12 | 5.7 | 94
12 | CC[C@H](C)[C@@H]1NC(=O)[C@H](CCC(=O)O)NC(=O)[C@@H]2CCCN2C(=O)[C@H](C)NC(=O)[C@H](CC(=O)O)NC(=O)[C@H](C(C)C)NC(=O)[C@H](CC(N)=O)NC(=O)[C@@H]2CSSC[C@H](NC(=O)CN)C(=O)N[C@@H](CSSC[C@@H](C(N)=O)NC1=O)C(=O)N[C@@H](CO)C(=O)N[C@@H](Cc1cnc[nH]1)C(=O)N1CCC[C@H]1C(=O)N[C@@H](C)C(=O)N2 (H-GCCSHPACNVDAPEIC-NH2; disulfide 2-8, 3-16) | – | 2.46 | > 10000 | – | > 10000 | – | 670000
13 | CC[C@H](C)[C@@H]1NC(=O)[C@H](CCC(=O)O)NC(=O)[C@H](C)NC(=O)[C@H](Cc2cnc[nH]2)NC(=O)[C@H](CC(=O)O)NC(=O)[C@H](C(C)C)NC(=O)[C@H](CC(N)=O)NC(=O)[C@@H]2CSSC[C@H](NC(=O)CN)C(=O)N[C@@H](CSSC[C@@H](C(N)=O)NC1=O)C(=O)N[C@@H](CO)C(=O)N[C@@H](Cc1cnc[nH]1)C(=O)N1CCC[C@H]1C(=O)N[C@@H](C)C(=O)N2 (H-GCCSHPACNVDHAEIC-NH2; disulfide 2-8, 3-16) | 1.9 | 0.51 | 543 | 13 | 202 | 2.7 | 7500
14 | CC[C@H](C)[C@@H]1NC(=O)[C@H](C)NC(=O)[C@@H]2CCCN2C(=O)[C@H](Cc2cnc[nH]2)NC(=O)[C@H](CC(=O)O)NC(=O)[C@H](C(C)C)NC(=O)[C@H](CC(N)=O)NC(=O)[C@@H]2CSSC[C@H](NC(=O)CN)C(=O)N[C@@H](CSSC[C@@H](C(N)=O)NC1=O)C(=O)N[C@@H](CO)C(=O)N[C@@H](Cc1cnc[nH]1)C(=O)N1CCC[C@H]1C(=O)N[C@@H](C)C(=O)N2 (H-GCCSHPACNVDHPAIC-NH2; disulfide 2-8, 3-16) | 0.6 | -0.48 | 181 | 1.9 | 29 | 6.2 | 760
15 | CC(C)[C@@H]1NC(=O)[C@H](CC(N)=O)NC(=O)[C@@H]2CSSC[C@H](NC(=O)CN)C(=O)N[C@@H](CSSC[C@@H](C(N)=O)NC(=O)[C@H](C)NC(=O)[C@H](CCC(=O)O)NC(=O)[C@@H]3CCCN3C(=O)[C@H](Cc3cnc[nH]3)NC(=O)[C@H](CC(=O)O)NC1=O)C(=O)N[C@@H](CO)C(=O)N[C@@H](Cc1cnc[nH]1)C(=O)N1CCC[C@H]1C(=O)N[C@@H](C)C(=O)N2 (H-GCCSHPACNVDHPEAC-NH2; disulfide 2-8, 3-16) | 4.8 | 1.02 | 1400 | 69 | 1080 | 1.3 | 24000
